Legend:
Cdk2/Cyclin A = Cdk2/Cyclin A (Homo sapiens, UniProt P24941); experiment: Assay for Inhibition of Cdk2/Cyclin A; type: biochemical; settings: 12 mM ATP (so in the source), retinoblastoma protein substrate, 25° C., 15 minutes
Procedure: (§1) The assays were carried out as described below.
Assay for Inhibition of Cdk2/Cyclin A
Cdk2 enzyme assays for IC50 determinations and kinetic evaluation are performed as follows. 96-well filter plates (Millipore MADVN6550) are used. […] All components except the ATP are added to the wells, and the plate is placed on a plate mixer for 2 minutes. The reaction is initiated by addition of [^32P]ATP, and the plate is incubated at 25° C. for 15 minutes. The reaction is terminated by addition of 0.1 mL 20% TCA. The plate is kept at 4° C. for at least 1 hour to allow the substrate to precipitate. The wells are then washed five times with 0.2 mL 10% TCA, and ^32P incorporation is determined with a beta plate counter (Wallac Inc., Gaithersburg, Md.).

Cdk4/Cyclin D = Cdk4/Cyclin D (Homo sapiens, UniProt P11802); experiment: Assay for Inhibition of Cdk4/Cyclin D; type: biochemical; settings: 25 μM ATP, retinoblastoma protein substrate, 25° C., 15 minutes
Procedure: as §1
Assay for Inhibition of Cdk4/Cyclin D
The Cdk4 enzyme assay for IC50 determination and kinetic evaluation is performed as follows. 96-well filter plates (Millipore MADVN6550) are used. […] Buffer A containing excess EDTA was used to determine the level of background ^32P in the absence of enzyme activity. All components except the ATP are added to the wells, and the plate is placed on a plate mixer for 2 minutes. The reaction is started by adding [^32P]ATP, and the plate is incubated at 25° C. for 15 minutes. The reaction is terminated by addition of 0.1 mL 20% trichloroacetic acid (TCA). The plate is kept at 4° C. for at least 1 hour to allow the substrate to precipitate. The wells are then washed five times with 0.2 mL 10% TCA, and ^32P incorporation is determined with a beta plate counter (Wallac Inc., Gaithersburg, Md.).

[1] = target: FGF receptor (FGFr) tyrosine kinase (Homo sapiens, UniProt P11362); experiment: Assay for Inhibition of FGFr; type: biochemical; settings: 50 μM ATP, Poly (4:1) glutamate-tyrosine substrate, 25° C.
Procedure: as §1
Assay for Inhibition of FGFr
For FGF receptor (FGFr) tyrosine kinase assays 96-well plates (100 μL/incubation/well), and conditions are optimized to measure the incorporation of ^32P from [γ^32P]ATP into a glutamate-tyrosine co-polymer substrate. Briefly, to each well is added 82.5 μL incubation buffer B (25 mM Hepes (pH 7.0), 150 mM NaCl, 0.1% Triton X-100, 0.2 mM PMSF, 0.2 mM Na3VO4, 10 mM MnCl2) and 750 μg/mL Poly (4:1) glutamate-tyrosine followed by 2.5 μL of the test compound in buffer B and 5 μL of a 7.5 μg/μL FGFr solution to initiate the reaction. Following a 10-minute incubation at 25° C., […] [γ^32P]ATP (0.4 μCi plus 50 μM ATP) is added to each well, and samples are incubated for an additional 10 minutes at 25° C. The reaction is terminated by the addition of 100 μL 30% trichloroacetic acid (TCA) containing 20 mM sodium pyrophosphate and precipitation of material onto glass fiber mats (Wallac). […] Nonspecific activity is defined as radioactivity retained on the filters following incubation of samples with buffer alone (no enzyme). Specific enzymatic activity (enzyme plus buffer) is defined as total activity minus nonspecific activity.

neointima formation = settings: rats; cited from earlier work

Sequence of FGF receptor (FGFr) tyrosine kinase (P11362 22-822): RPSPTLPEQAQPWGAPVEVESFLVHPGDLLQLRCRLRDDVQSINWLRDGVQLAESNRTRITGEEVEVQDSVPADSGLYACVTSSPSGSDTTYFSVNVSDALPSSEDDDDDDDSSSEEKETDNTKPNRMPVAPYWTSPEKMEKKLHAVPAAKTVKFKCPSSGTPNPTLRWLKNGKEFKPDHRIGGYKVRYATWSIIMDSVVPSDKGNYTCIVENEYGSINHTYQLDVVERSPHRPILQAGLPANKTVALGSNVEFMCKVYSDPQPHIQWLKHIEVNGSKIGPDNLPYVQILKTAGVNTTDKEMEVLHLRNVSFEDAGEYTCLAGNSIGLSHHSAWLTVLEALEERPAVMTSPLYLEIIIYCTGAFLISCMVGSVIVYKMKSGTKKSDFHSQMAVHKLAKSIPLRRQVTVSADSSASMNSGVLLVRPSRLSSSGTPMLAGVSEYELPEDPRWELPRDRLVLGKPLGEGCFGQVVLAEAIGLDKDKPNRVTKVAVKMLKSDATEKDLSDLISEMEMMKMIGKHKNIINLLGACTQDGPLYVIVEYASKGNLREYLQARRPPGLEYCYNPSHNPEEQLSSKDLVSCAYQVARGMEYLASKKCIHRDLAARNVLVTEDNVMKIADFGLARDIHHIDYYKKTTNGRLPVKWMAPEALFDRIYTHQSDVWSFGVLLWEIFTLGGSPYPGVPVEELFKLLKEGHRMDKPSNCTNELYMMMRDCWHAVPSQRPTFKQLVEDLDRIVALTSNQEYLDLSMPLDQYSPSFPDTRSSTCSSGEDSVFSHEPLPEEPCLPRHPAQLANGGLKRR
Sequence of Cdk4/Cyclin D (P11802 whole entry, species assumed): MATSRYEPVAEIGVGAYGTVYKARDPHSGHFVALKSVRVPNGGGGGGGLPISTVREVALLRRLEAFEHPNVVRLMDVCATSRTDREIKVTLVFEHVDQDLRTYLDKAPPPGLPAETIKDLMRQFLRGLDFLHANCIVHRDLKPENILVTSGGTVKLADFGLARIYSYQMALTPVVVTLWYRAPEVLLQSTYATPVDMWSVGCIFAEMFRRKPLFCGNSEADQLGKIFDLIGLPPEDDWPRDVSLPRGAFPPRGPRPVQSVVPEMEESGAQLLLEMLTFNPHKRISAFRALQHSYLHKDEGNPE
Sequence of Cdk4/Cyclin D (P24385 whole entry partner, species assumed): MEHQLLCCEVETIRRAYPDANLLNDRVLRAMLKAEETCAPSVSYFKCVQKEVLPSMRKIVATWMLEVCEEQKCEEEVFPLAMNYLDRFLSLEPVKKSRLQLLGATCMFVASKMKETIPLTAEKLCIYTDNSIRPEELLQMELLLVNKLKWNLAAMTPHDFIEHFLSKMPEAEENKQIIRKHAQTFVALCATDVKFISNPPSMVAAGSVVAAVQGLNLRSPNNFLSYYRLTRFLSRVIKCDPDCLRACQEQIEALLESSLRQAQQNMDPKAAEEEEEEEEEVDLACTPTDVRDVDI

Structure (SMILES)	IC50 (Cdk2/Cyclin A)	IC50 (Cdk4/Cyclin D)	melting point	IC50 [1]	inhibition of neointima formation (neointima formation)
COc1ccc(CNc2nc(N(CCO)CCO)nc3c2ncn3C(C)C)cc1 [CVT-313]					greater than 80%
Nc1cccc(Nc2ncc3cc(Br)c(=O)n(C4CCCC4)c3n2)n1 [Example 65, 6-Bromo-8-cyclopentyl-2-(pyridin-2,6-yldiamino)-8H-pyrido[2,3-d]pyrimidin-7-one]	3.3 µM	0.43 µM	> 300 °C		
COCCN(CCOC)c1ccc(Nc2ncc3c(C)c(C(C)=O)c(=O)n(C4CCCC4)c3n2)nc1 [Example 55, 6-Acetyl-2-{5-[bis-(2-methoxy-ethyl)-amino]-pyridin-2-ylamino}-8-cyclopentyl-5-methyl-8H-pyrido[2,3-d]pyrimidin-7-one]	> 5 µM	0.024 µM	138 °C	> 5 µM	

More lines, main results first:

IC50 (Cdk2/Cyclin A)	IC50 (Cdk4/Cyclin D)	melting point	IC50 [1]	Structure (SMILES)	inhibition of neointima formation (neointima formation)
> 5 µM	0.145 µM	> 240 °C	> 5 µM	Cc1c(I)c(=O)n(C2CCCC2)c2nc(Nc3ccc(N4CCNCC4)cn3)ncc12 [Example 50, 8-Cyclopentyl-6-iodo-5-methyl-2-(5-piperazin-1-yl-pyridin-2-ylamino)-8H-pyrido[2,3-d]pyrimidin-7-one]	
	1.1 µM	94 to 95 °C	> 5 µM	COCCN(CCOC)c1ccc(Nc2ncc3c(C)c(Br)c(=O)n(C4CCCC4)c3n2)nc1 [Example 54, 2-{5-[Bis-(2-methoxy-ethyl)-amino]-pyridin-2-ylamino}-6-bromo-8-cyclopentyl-5-methyl-8H-pyrido[2,3-d]pyrimidin-7-one]	
